Test [1] relates to 2C-like genes (Zscan4, MuERV-L/MERVL, Dux) in ESCs (E14, R1). In words: qPCR for 2C-like specific genes in ESCs. The test is classed as cell-based, mouse. As to conditions: ESC lines E14 and R1; time and dosage-dependent. Here is the method:
(§1) All treatments including APH, HU, UV, ATRi, ATMi and Chk1i were added in to fresh ESC medium and the cells were kept in 37° C. and 3% 02 tension for overnight (16-17 hrs) unless mentioned in each particular result section. APH was used at various concentrations ranging from 0.3 uM to 6 uM that is mentioned in each experiment in order to induce mild to acute replication stress response. Similarly, HU was used at 0.1 mM-3 mM. ATMi (KU-55933) and ATRi (VE 822) were used at the concentration of 10 uM and 1 uM respectively. Moreover, Chk1i (UCN-01) at the concentration of 100 nM was used. UV radiation was performed at the dosage ranging from 2 to 10 J/m2. For induction of ETAA1-AAD expression, Dox was used at the concentration of 1 μg/mL for 48 hrs.
RNA was extracted using RNeasy mini kit (QIAGEN), quantified by NanoDrop spectrophotometer and cDNA was prepared from 2 μg total DNA-depleted RNA using SuperScript™ III reverse transcriptase kit (Invitrogen cat #18080-093) following manufacturer's instructions. qPCR assay performed based on standard protocol using 10× SsoFast™ EvaGreen® Supermix or later 1× LightCycler 480 SYBR Green I Master (Roche, 04707516001), 0.5 μM primer mix and 5 ng of cDNA. GAPDH was used as internal control to normalise the qPCR data following ΔΔCt method, 10 μM primer mix and a total amount of cDNA corresponding to 5 ng of starting RNA for each reaction.

A further test concerns pZscan4-Emerald ESCs. In words: FACS analysis of Zscan4-Emerald ESCs (Emerald-GFP positive cells). The test is classed as cell-based, mouse. Here is the method: as §1
ESCs were fixed and permeabilized using Cytoperm/Cytofix kit (BD Biosciences), and subsequently stained for one hour at room temperature with Alexa Fluor® 647 anti-H2AX-Phosphorylated (Ser139) antibody (Biolegend) or P-CHK1-PE conjugated antibody (cell signaling 12268). Cells were washed and acquired on a FACS Calibur instrument or Attune NxT (Thermo Fisher Scientific). For Emerald-GFP acquisition, cells were trypsinized, collected and subsequently acquired without fixation. Cell cycle profiles were acquired after incubation with DAPI (4′,6-diamidino-2-phenylindole) overnight. For Caspase3 FACS analysis after fixation and permeabilization, Cleaved Caspase3 antibody were used for one hr at RT followed by washes and one hr incubation in donkey anti rabbit secondary antibody. […]
Background: A flow cytometer gives signals particle by particle.

Another test deals with mESC lines E14 and R1. In words: Whole gene expression profiling (microarray) of mESC lines E14 and R1. The test is classed as cell-based, mouse. To be noted: APH plus inhibitor. Here is the method:
The quality of total RNA was first assessed using an Agilent Bioanalyzer 2100 (Agilent Technologies, Palo Alto, Calif.). Biotin-labeled cDNA targets were synthesized starting from 150 ng of total RNA. Double stranded cDNA synthesis and related cRNA was performed with GeneChip® WT Plus Kit (Affymetrix, Santa Clara, Calif.). With the same kit was synthesized the sense strand cDNA before to be fragmented and labeled. […] Each eukaryotic GeneChip® probe array contains probe sets for several B. subtilis genes that are absent in the samples analyzed (lys, phe, thr, and dap). This Poly-A RNA Control Kit contains in vitro synthesized, polyadenylated transcripts for these B. subtilis genes that are pre-mixed at staggered concentrations to allow GeneChip® probe array users to assess the overall success of the assay.
Hybridization was performed using the GeneAtlas™ Hybridization, Wash and Stain Kit. […] Targets were diluted in hybridization buffer at a concentration of 0.05 μg/ul, denatured at 99° C. for 5 minutes, incubated at 45° C. for 5 minutes and centrifuged at 5,000 rpm for 1 minute. The Array Strip is then moved to a hybridization tray, which contains the hybridization cocktails. A single Gene 2.1 PEG Array Strip is hybridized with four different biotin-labeled targets. Hybridizations were performed for 20 hours at 48° C. in the GeneAtlas™ Hybridization Station. The Array Strips were washed and stained in the GeneAtlas™ Personal Fluidics Station. At the end of this procedure the array strips were placed into the imaging tray, which contains the Array Holding buffer.
The array strips were imaged using the GeneAtlas™ Imaging Station. Affymetrix GeneAtlas™ Command Console software was used to acquire the Array Strip images and […].
The CAMERA gene set enrichment p-values were calculated using the limma package and the camera function 30.
In the GSVA based enrichment analysis, we used the MsigDB gene sets, and transformed the individual gene expression values into gene set expression values with the GSVA package 32. We calculated the gene set differential expression as in the gene level differential expression analysis, only skipping the RMA normalization step.

For another test, the system named is Zscan4. As to conditions: previous work; cited from earlier work.

Entries after “also recorded” stand apart in the source; their conditions may differ.

The values that follow come from US20200131473A1, “METHOD OF GENERATING 2 CELL-LIKE STEM CELLS” (IFOM FONDAZIONE ISTITUTO FIRC DI ONCOLOGIA MOLECOLARE, priority 2017, published 2020).

In the case of `NC(=O)NO` [HU, hydroxyurea], the “expression of Zscan4 and MuERV-L (QPCR and FACS)” value in test [1] is reported as “significantly upregulated”. Besides, the “number of Emerald-GFP positive (Em+) ESCs” value in the test on pZscan4-Emerald ESCs (RS inducing agents, dose-dependent, qPCR and FACS) was “significant increase”.

Take `Cn1c(=O)c2c(ncn2C)n(C)c1=O` [Caffeine]: the “two placenta-related gene categories upon ATR inhibition” value in the test with mESC lines E14 and R1 is “robustly suppressed”.

Turning to `COC(=O)Nc1nc2ccc(C(=O)c3cccs3)cc2[nH]1` [nocodazole], the “Zscan4 expression upon G2/M arrest” value in the test on Zscan4 is on record as “not sufficient to trigger Zscan4 expression”.

For the compound `O=c1cc(-c2cccc3c2Sc2ccccc2S3)oc(N2CCOCC2)c1` [KU-55933], the “elevated expression of 2C-like specific genes (Zscan4, MERVL) upon APH and HU treatment” value in the test on pZscan4-Emerald ESCs (inhibitor added under replication stress, flow cytometry and immunoblot, listed as ATM inhibitor) is given as “could not alter”. The “number of Zscan4-Emerald positive cells” value in the test on pZscan4-Emerald ESCs (normal culture condition, ATRi 1 uM, ATMi 10 uM) was “did not change; also recorded: did not significantly reduce”.
